Measurements as given in US9575064B2, “Methods relating to testing for lysosomal storage disorders” (PerkinElmer Health Sciences, Inc., priority 2014, dated 2017).

Key:
[1] = cited from earlier work
[2] = target: T1, galactocerebrosidase (GALC) (Homo sapiens, UniProt P54803); conditions: Zhang et al; Li et al; cited from earlier work
T1 sequence (P54803 43-685): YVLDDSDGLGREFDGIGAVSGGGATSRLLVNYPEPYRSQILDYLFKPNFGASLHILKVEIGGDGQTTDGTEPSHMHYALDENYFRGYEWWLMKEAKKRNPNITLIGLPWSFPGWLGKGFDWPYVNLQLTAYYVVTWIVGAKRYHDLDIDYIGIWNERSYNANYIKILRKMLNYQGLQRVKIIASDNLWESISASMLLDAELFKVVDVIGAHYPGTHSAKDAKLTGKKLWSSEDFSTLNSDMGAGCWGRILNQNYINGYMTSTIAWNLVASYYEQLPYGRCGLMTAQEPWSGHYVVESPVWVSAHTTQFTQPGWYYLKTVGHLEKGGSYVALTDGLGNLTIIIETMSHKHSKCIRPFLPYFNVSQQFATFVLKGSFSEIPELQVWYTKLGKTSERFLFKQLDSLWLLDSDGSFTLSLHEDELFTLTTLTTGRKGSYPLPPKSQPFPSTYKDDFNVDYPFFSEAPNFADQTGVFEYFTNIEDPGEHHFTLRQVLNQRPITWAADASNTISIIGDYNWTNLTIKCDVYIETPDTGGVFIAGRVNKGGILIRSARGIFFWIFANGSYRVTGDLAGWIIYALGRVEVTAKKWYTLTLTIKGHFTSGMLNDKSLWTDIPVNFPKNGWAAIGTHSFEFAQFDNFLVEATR

[3] = target: T2, acid β-glucocerebrosidase (ABG) (Homo sapiens, UniProt P04062); assay: 6-plex DBS enzyme activity assay (FIA-MS/MS) with and without sodium oleate: ABG; type: biochemical
T2 construct: from tissue; host or cells: human dried blood spots (CDC control DBS: pooled cord blood, leukocyte-reduced adult blood)
T2 sequence (P04062 40-536): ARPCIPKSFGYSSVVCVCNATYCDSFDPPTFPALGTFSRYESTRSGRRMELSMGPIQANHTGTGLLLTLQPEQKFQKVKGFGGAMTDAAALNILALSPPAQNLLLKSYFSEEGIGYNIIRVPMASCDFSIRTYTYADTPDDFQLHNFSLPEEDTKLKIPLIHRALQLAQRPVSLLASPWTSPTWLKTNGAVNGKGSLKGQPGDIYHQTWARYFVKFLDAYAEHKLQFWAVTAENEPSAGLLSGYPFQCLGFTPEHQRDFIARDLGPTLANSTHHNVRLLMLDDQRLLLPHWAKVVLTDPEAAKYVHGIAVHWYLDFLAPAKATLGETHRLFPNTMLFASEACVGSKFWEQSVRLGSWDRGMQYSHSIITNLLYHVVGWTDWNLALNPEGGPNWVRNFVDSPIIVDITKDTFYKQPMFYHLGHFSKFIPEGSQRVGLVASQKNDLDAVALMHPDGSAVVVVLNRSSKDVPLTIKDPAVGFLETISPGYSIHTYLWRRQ

[4] = target: T3, acid sphingomylenase (ASM) (Homo sapiens, UniProt P17405); assay: 6-plex DBS enzyme activity assay (FIA-MS/MS) with and without sodium oleate: ASM; type: biochemical
T3 construct: from tissue; host or cells: human dried blood spots (CDC control DBS: pooled cord blood, leukocyte-reduced adult blood)
T3 sequence (P17405 47-631): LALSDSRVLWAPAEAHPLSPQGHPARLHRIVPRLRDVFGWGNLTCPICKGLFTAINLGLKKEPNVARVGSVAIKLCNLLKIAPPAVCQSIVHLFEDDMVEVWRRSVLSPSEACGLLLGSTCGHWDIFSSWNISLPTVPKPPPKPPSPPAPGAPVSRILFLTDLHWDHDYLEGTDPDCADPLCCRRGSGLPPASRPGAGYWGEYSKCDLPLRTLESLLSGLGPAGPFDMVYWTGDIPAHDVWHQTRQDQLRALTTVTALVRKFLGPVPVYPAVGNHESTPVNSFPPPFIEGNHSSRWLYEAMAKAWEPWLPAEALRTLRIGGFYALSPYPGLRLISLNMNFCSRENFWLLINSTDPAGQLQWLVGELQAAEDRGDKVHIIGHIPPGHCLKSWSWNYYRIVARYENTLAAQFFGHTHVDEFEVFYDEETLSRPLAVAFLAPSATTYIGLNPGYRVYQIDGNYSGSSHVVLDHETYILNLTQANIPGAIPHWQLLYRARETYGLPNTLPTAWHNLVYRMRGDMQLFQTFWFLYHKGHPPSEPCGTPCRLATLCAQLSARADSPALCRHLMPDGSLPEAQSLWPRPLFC

α-L-iduronidase (IDUA) = target: T4, α-L-iduronidase (IDUA) (Homo sapiens, UniProt P35475); assay: 6-plex DBS enzyme activity assay (FIA-MS/MS) with and without sodium oleate: IDUA; type: biochemical
T4 construct: from tissue; host or cells: human dried blood spots (CDC control DBS: pooled cord blood, leukocyte-reduced adult blood)
T4 sequence (P35475 28-653): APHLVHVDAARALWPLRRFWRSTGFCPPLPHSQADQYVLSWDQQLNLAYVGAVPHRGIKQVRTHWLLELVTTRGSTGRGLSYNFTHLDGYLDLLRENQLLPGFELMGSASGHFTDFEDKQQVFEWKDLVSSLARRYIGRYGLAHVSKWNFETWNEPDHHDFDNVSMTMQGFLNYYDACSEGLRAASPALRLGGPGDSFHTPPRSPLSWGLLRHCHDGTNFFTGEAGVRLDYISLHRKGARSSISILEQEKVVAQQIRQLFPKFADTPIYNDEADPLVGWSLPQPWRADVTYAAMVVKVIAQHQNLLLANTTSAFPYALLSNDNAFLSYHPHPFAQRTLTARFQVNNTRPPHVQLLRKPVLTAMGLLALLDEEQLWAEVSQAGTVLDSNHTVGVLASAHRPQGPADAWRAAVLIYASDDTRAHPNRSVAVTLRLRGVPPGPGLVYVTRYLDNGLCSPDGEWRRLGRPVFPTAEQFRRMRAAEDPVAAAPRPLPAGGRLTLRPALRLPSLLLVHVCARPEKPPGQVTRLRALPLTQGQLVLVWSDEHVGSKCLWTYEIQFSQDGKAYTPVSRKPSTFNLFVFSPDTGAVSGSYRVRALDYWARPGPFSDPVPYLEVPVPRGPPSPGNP

[5] = target: T5, acid α-galactosidase A (GLA) (Homo sapiens, UniProt P06280); assay: 6-plex DBS enzyme activity assay (FIA-MS/MS) with and without sodium oleate: GLA; type: biochemical
T5 construct: from tissue; host or cells: human dried blood spots (CDC control DBS: pooled cord blood, leukocyte-reduced adult blood)
T5 sequence (P06280 32-429): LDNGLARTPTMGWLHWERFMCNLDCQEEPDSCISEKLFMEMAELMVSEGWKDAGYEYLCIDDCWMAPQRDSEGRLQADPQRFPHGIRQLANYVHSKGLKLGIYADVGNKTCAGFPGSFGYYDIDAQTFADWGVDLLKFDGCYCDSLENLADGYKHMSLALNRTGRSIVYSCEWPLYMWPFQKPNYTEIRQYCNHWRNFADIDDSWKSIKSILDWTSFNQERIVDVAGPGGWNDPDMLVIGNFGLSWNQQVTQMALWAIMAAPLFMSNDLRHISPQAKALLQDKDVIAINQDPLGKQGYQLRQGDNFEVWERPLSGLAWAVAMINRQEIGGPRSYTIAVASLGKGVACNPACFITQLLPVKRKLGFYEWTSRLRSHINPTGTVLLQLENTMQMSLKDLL

acid α-glucosidase (GAA) = target: T6, acid α-glucosidase (GAA) (Homo sapiens, UniProt P10253); assay: 6-plex DBS enzyme activity assay (FIA-MS/MS) with and without sodium oleate: GAA; type: biochemical
T6 construct: from tissue; host or cells: human dried blood spots (CDC control DBS: pooled cord blood, leukocyte-reduced adult blood)

[6] = target: T1, galactocerebrosidase (GALC); assay: 6-plex DBS enzyme activity assay (FIA-MS/MS) with and without sodium oleate: GALC; type: biochemical; parameters: from tissue; host or cells: human dried blood spots (CDC control DBS: pooled cord blood, leukocyte-reduced adult blood)
[7] = CDC High Control DBS, with sodium oleate
[8] = CDC High Control DBS, with vs without sodium oleate
[9] = CDC Low Control DBS, with sodium oleate
[10] = CDC Low Control DBS, with vs without sodium oleate
[11] = CDC Medium Control DBS, with sodium oleate
[12] = CDC Medium Control DBS, with vs without sodium oleate
[13] = Med/Low Control DBS ratio, with vs without sodium oleate
[14] = addition of sodium oleate, stated for the ceramides
[15] = two assays differing only by addition or lack of sodium oleate

## CCCCCCCC/C=C\CCCCCCCC(=O)O [oleic acid]
[1]
  solubility in aqueous buffers: very difficult to dissolve
[2]
  effect on GALC enzyme: enhancer

## CCCCCCCC/C=C\CCCCCCCC(=O)[O-].[Na+] [sodium oleate]
[3]; [7]
  Enzyme Activity ABG: 11.46 µmol/L/h
[3]; [8]
  Sodium oleate gain ABG: 162%
[3]; [9]
  Enzyme Activity ABG: 0.95 µmol/L/h
[3]; [10]
  Sodium oleate gain ABG: 159%
[3]; [11]
  Enzyme Activity ABG: 5.44 µmol/L/h
[3]; [12]
  Sodium oleate gain ABG: 175%
[3]; [13]
  Sodium oleate gain of Med/Low ratio ABG: 120%
[3]; [14]
  widening of the gap between Low Control DBS and Medium Control DBS, ABG: approximately 25%
[3]; [15]
  enzyme activity ABG when sodium oleate was present: improved
[3]; with sodium oleate
  CDC Med/Low Control DBS activity ratio ABG: 5.8
[4]; [7]
  Enzyme Activity ASM: 2.54 µmol/L/h
[4]; [8]
  Sodium oleate gain ASM: 117%
[4]; [9]
  Enzyme Activity ASM: 0.16 µmol/L/h
[4]; [10]
  Sodium oleate gain ASM: 95%
[4]; [11]
  Enzyme Activity ASM: 1.29 µmol/L/h
[4]; [12]
  Sodium oleate gain ASM: 122%
[4]; [13]
  Sodium oleate gain of Med/Low ratio ASM: 136%
[4]; [14]
  widening of the gap between Low Control DBS and Medium Control DBS, ASM: approximately 25%
[4]; [15]
  enzyme activity ASM when sodium oleate was present: improved
[4]; with sodium oleate
  CDC Med/Low Control DBS activity ratio ASM: 8.0
α-L-iduronidase (IDUA); [7]
  Enzyme Activity IDUA: 11.95 µmol/L/h
α-L-iduronidase (IDUA); [8]
  Sodium oleate gain IDUA: 111%
α-L-iduronidase (IDUA); [9]
  Enzyme Activity IDUA: 0.72 µmol/L/h
α-L-iduronidase (IDUA); [10]
  Sodium oleate gain IDUA: 107%
α-L-iduronidase (IDUA); [11]
  Enzyme Activity IDUA: 5.86 µmol/L/h
α-L-iduronidase (IDUA); [12]
  Sodium oleate gain IDUA: 116%
α-L-iduronidase (IDUA); [13]
  Sodium oleate gain of Med/Low ratio IDUA: 114%
α-L-iduronidase (IDUA); with sodium oleate
  CDC Med/Low Control DBS activity ratio IDUA: 8.1
[5]; [7]
  Enzyme Activity GLA: 13.15 µmol/L/h
[5]; [8]
  Sodium oleate gain GLA: 104%
[5]; [9]
  Enzyme Activity GLA: 1.00 µmol/L/h
[5]; [10]
  Sodium oleate gain GLA: 95%
[5]; [11]
  Enzyme Activity GLA: 6.57 µmol/L/h
[5]; [12]
  Sodium oleate gain GLA: 106%
[5]; [13]
  Sodium oleate gain of Med/Low ratio GLA: 114%
[5]; with sodium oleate
  CDC Med/Low Control DBS activity ratio GLA: 6.5
Acid α-glucosidase (GAA); [7]
  Enzyme Activity GAA: 13.48 µmol/L/h
Acid α-glucosidase (GAA); [8]
  Sodium oleate gain GAA: 110%
Acid α-glucosidase (GAA); [9]
  Enzyme Activity GAA: 0.99 µmol/L/h
Acid α-glucosidase (GAA); [10]
  Sodium oleate gain GAA: 105%
Acid α-glucosidase (GAA); [11]
  Enzyme Activity GAA: 7.08 µmol/L/h
Acid α-glucosidase (GAA); [12]
  Sodium oleate gain GAA: 115%
Acid α-glucosidase (GAA); [13]
  Sodium oleate gain of Med/Low ratio GAA: 115%
Acid α-glucosidase (GAA); with sodium oleate
  CDC Med/Low Control DBS activity ratio GAA: 7.2
[6]; [7]
  Enzyme Activity GALC: 6.72 µmol/L/h
[6]; [8]
  Sodium oleate gain GALC: 126%
[6]; [9]
  Enzyme Activity GALC: 0.45 µmol/L/h
[6]; [10]
  Sodium oleate gain GALC: 118%
[6]; [11]
  Enzyme Activity GALC: 3.22 µmol/L/h
[6]; [12]
  Sodium oleate gain GALC: 133%
[6]; [13]
  Sodium oleate gain of Med/Low ratio GALC: 117%
[6]; [14]
  widening of the gap between Low Control DBS and Medium Control DBS, GALC: approximately 25%
[6]; [15]
  enzyme activity GALC when sodium oleate was present: improved
[6]; with sodium oleate
  CDC Med/Low Control DBS activity ratio GALC: 7.1
